pIC50: −log10 of the molar value.
Tested on: 292921-168-R-J2-PDC complex spheroid growth
Test: Anticancer human tumor 292921-168-R-J2-PDC patient-derived pancreatic carcinoma cell line growth inhibition [AhR]
Settings: for pIC50: curve of first compound; for viability, T/C: stronger effect = lower value
Procedure, shortened: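 Spheroids combined tumor cells with HUVEC endothelial cells and human MSCs as stroma. AhR antagonists were paired with standard or investigational drugs, each dosed in half-log steps down from near clinical Cmax, or from 10 microM where Cmax was unknown.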

[1] = second compound 0.1 µM, first compound 0.00949 µM
[2] = second compound 0.1 µM, first compound 0.03 µM
[3] = second compound 0.1 µM, first compound 0.0949 µM
[4] = second compound 0.1 µM, first compound 0.3 µM
[5] = second compound 0.1 µM, first compound 0.949 µM
[6] = second compound 0.1 µM, first compound 3 µM
[7] = second compound 0.316 µM, first compound 0.00949 µM
[8] = second compound 0.316 µM, first compound 0.03 µM
[9] = second compound 0.316 µM, first compound 0.0949 µM
[10] = second compound 0.316 µM, first compound 0.3 µM
[11] = second compound 0.316 µM, first compound 0.949 µM
[12] = second compound 0.316 µM, first compound 3 µM
[13] = second compound 1 µM, first compound 0.00949 µM
[14] = second compound 1 µM, first compound 0.03 µM
[15] = second compound 1 µM, first compound 0.0949 µM
[16] = second compound 1 µM, first compound 0.3 µM
[17] = second compound 1 µM, first compound 0.949 µM
[18] = second compound 1 µM, first compound 3 µM
[19] = second compound 3.16 µM, first compound 0.00949 µM
[20] = second compound 3.16 µM, first compound 0.03 µM
[21] = second compound 3.16 µM, first compound 0.0949 µM
[22] = second compound 3.16 µM, first compound 0.3 µM
[23] = second compound 3.16 µM, first compound 0.949 µM
[24] = second compound 3.16 µM, first compound 3 µM
[25] = second compound 10 µM, first compound 0.00949 µM
[26] = second compound 10 µM, first compound 0.03 µM
[27] = second compound 10 µM, first compound 0.0949 µM
[28] = second compound 10 µM, first compound 0.3 µM
[29] = second compound 10 µM, first compound 0.949 µM
[30] = second compound 10 µM, first compound 3 µM
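Further: spheroids exposed to compounds for seven days after three days of growth.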

Row | pIC50 (second compound 0.1 µM) | pIC50 (second compound 0.316 µM) | pIC50 (second compound 1 µM) | pIC50 (second compound 3.16 µM) | pIC50 (second compound 10 µM) | SMILES | viability, T/C [1] [%] | viability, T/C [2] [%] | viability, T/C [3] [%] | viability, T/C [4] [%] | viability, T/C [7] [%] | viability, T/C [8] [%] | viability, T/C [9] [%] | viability, T/C [10] [%] | viability, T/C [13] [%] | viability, T/C [14] [%] | viability, T/C [15] [%] | viability, T/C [16] [%] | viability, T/C [19] [%] | viability, T/C [20] [%] | viability, T/C [21] [%] | further results
1 | < 5.52 | < 5.52 | < 5.52 | < 5.52 | 7.47 | CCN(c1cc(-c2ccc(CN3CCOCC3)cc2)cc(C(=O)NCc2c(C)cc(C)[nH]c2=O)c1C)C1CCOCC1 + Cc1cncc(-c2nc(NCCc3c[nH]c4ccccc34)c3ncn(C(C)C)c3n2)c1 | 93.8 | 94.5 | 92.7 | 84.9 | 94.7 | 91.1 | 90 | 77.6 | 87.2 | 88.8 | 84.9 | 76.4 | 64.4 | 66.7 | 73.2 | viability, T/C [5]: 82.7%; viability, T/C [6]: 67.3%; viability, T/C [11]: 78.5%; viability, T/C [12]: 83.3%; viability, T/C [17]: 75.4%; viability, T/C [18]: 75.8%; viability, T/C [22]: 64.2%; viability, T/C [23]: 62.8%; viability, T/C [24]: 52.7%; viability, T/C [25]: 49.2%; viability, T/C [26]: 49.6%; viability, T/C [27]: 52.7%; viability, T/C [28]: 49.3%; viability, T/C [29]: 41.1%; viability, T/C [30]: 45.3%
2 | < 6.52 | < 6.52 | < 6.52 | < 6.52 | 7.04 | Nc1ncn(C2CC(O)C(CO)S2)c(=O)n1 (stereo not given) + Cc1cncc(-c2nc(NCCc3c[nH]c4ccccc34)c3ncn(C(C)C)c3n2)c1 | 91.3 | 92.6 | 87 | 89.9 | 88.2 | 98.2 | 88.2 | 92.7 | 69.7 | 75.1 | 82.4 | 82.9 | 59.5 | 47.3 | 50 | viability, T/C (second compound 0.1 µM, first compound 0.000949 µM): 94.8%; viability, T/C (second compound 0.1 µM, first compound 0.003 µM): 92.2%; viability, T/C (second compound 0.316 µM, first compound 0.000949 µM): 91%; viability, T/C (second compound 0.316 µM, first compound 0.003 µM): 85.9%; viability, T/C (second compound 1 µM, first compound 0.000949 µM): 71.9%; viability, T/C (second compound 1 µM, first compound 0.003 µM): 74%; viability, T/C (second compound 3.16 µM, first compound 0.000949 µM): 52.2%; viability, T/C (second compound 3.16 µM, first compound 0.003 µM): 55.5%; viability, T/C [22]: 57.8%; viability, T/C (second compound 10 µM, first compound 0.000949 µM): 50.1%; viability, T/C (second compound 10 µM, first compound 0.003 µM): 48.8%; viability, T/C [25]: 54.6%; viability, T/C [26]: 50%; viability, T/C [27]: 50.2%; viability, T/C [28]: 48.4%
3 | 6.75 | 6.78 | 6.71 | 6.97 | 6.97 | O=C(C=Cn1cnc(-c2cc(C(F)(F)F)cc(C(F)(F)F)c2)n1)NNc1cnccn1 + Cc1cncc(-c2nc(NCCc3c[nH]c4ccccc34)c3ncn(C(C)C)c3n2)c1 | 90.8 | 85.3 | 62.6 | 39.1 | 91.9 | 86.2 | 62.1 | 36.2 | 91 | 80.2 | 62.4 | 42.5 | 83.6 | 71 | 51.5 | viability, T/C [5]: 23%; viability, T/C [6]: 15.2%; viability, T/C [11]: 21.2%; viability, T/C [12]: 16.2%; viability, T/C [17]: 24.6%; viability, T/C [18]: 13.1%; viability, T/C [22]: 35.2%; viability, T/C [23]: 21.9%; viability, T/C [24]: 18.9%; viability, T/C [25]: 54.4%; viability, T/C [26]: 58.1%; viability, T/C [27]: 51.2%; viability, T/C [28]: 38.7%; viability, T/C [29]: 35.5%; viability, T/C [30]: 29.1%
